Patent US20080039515A1, “Arylpyrazoles And Methods Of Using Same For Control Of Insect Pests That Bore Into Trees” (The Texas A&M University System, priority 2004, published 2008)
Read-outs that look alike come from different tables or passages of the source.

Experiments:
Ips engraver beetles = assay: Trial 2 single-tree protection study: Ips attack, tree mortality and gallery construction on standing loblolly pine; format: in vivo; set-up: Length of Egg Galleries Total: unit not given here; details: for trees with early signs of fading crowns (number of 6 trees): 24 days after initial pheromone deployment; for Length of Egg Galleries Total / Length of Egg Galleries With Brood / Length of Egg Galleries With Brood % of Total / Length of Egg Galleries Without Brood / Length of Egg Galleries Without Brood % of Total / Number of Egg Galleries Total / Number of Egg Galleries With Brood % of Total / Number of Egg Galleries With Brood No. / Number of Egg Galleries Without Brood % of Total / Number of Egg Galleries Without Brood No. / Nuptial Chambers With Egg Galleries % of Total / Nuptial Chambers With Egg Galleries No. / Nuptial Chambers Without Egg Galleries % of Total / Nuptial Chambers Without Egg Galleries No. / Total Nuptial Chambers: logs cut after tree mortality or end of trial; for Mean # of Ips caught/trap / Number of Attacks/0.3 m bole section at 3 m after 24 days: Ips: standing loblolly pine; for Number of Attacks/0.3 m bole section at 3 m after 24 days: Ips: 24 days after pheromone deployment
Protocol: Study Sites: Two 20-year-old, recently thinned loblolly pine plantations were selected in Texas. Trees in one plantation were injected for use in a bolt study (Trial 1). Trees in ½ acre section of the second plantation were injected as part of a single-tree protection study (Trial 2). A staging area also was set up in the second plantation where bolts from the first plantation were exposed to bark beetles and wood borers.
Population Monitoring: A clear panel of acetate (10 cm wide by 25 cm long) was attached to the center of each bolt after deployment of bolts or 2 m high on standing trees after deployment of pheromone baits to monitor arrival of bark beetles. The top surface of each panel was coated entirely with Stikem Special® trapping compound (Michel and Pelton, Emeryville, Calif.). The traps were left in place for two weeks.
Trial 2: Loblolly pine, 15-20 cm (=6-9 inch) DBH, also were selected in March of the study year in a recently thinned 20-year-old pine stand in east Texas. Each treatment (the same as those used in Trial 1) was injected into four cardinal points about 0.3 m above the ground on each of 6 trees in April (16th-23rd) using the Arborjet Tree IV™ system.
After 5 weeks post-injection (May 28), frills were cut with a hatchet into the sapwood between the injection points near the base of the tree. A cellulose. sponge was inserted into each cut and loaded with I0 ml of a 4:1 mix of sodium N-methyldithiocarbamate (MS) (Woodfume®; Osmose, Inc., Buffalo, N.Y.) plus dimethyl sulfoxide (DMSO) (Aldrich Chemical) (Roton 1987, Strom et al. 2004). […] The intent was to stress the tree and make it susceptible to attack by bark beetles without killing it. Pheromone packets containing racemic ipsdienol+lanerione, ipsenol or cis-verbenol were attached (June 7) atop 3 m stakes evenly spaced in between and around the study trees to encourage attack by the three Ips engraver species. […] The baits were changed every 4 weeks.
Trial 2. […] All visible Ips attacks and cerambycid egg niches were counted within the marked area. The number of trees with fading crowns also was recorded. Thereafter, the trees were evaluated weekly for crown fading. When mortality did occur, the trees were felled and two bolts taken and evaluated for attack success and gallery length as described in Trial 1. […] Treatment efficacy was determined by comparing tree survival, beetle attacks and egg gallery length on treated and untreated bolts. As before, data were transformed and analyzed by GLM and the Fisher's Protected LSD test using the Statview statistical program.

Cerambycid = format: in vivo, cerambycids; details: for Number of Attacks/0.3 m bole section at 3 m after 24 days: Cerambycid: 576 h
Protocol: After 5 weeks post-injection (May 28), frills were cut with a hatchet into the sapwood between the injection points near the base of the tree. A cellulose. sponge was inserted into each cut and loaded with I0 ml of a 4:1 mix of sodium N-methyldithiocarbamate (MS) (Woodfume®; Osmose, Inc., Buffalo, N.Y.) plus dimethyl sulfoxide (DMSO) (Aldrich Chemical) (Roton 1987, Strom et al. 2004). This method reduces resin to near zero in 1-2 weeks. The intent was to stress the tree and make it susceptible to attack by bark beetles without killing it. Pheromone packets containing racemic ipsdienol+lanerione, ipsenol or cis-verbenol were attached (June 7) atop 3 m stakes evenly spaced in between and around the study trees to encourage attack by the three Ips engraver species. […] Thus, ipsdienol and cis-verbenol pheromone baits were deployed on all stakes on June 17th. The baits were changed every 4 weeks.
Trial 2. Three weeks after pheromone deployment (June 28), each tree was evaluated by marking a 30 cm (1 ft) section of bole at a height of 3 m (10 ft). All visible Ips attacks and cerambycid egg niches were counted within the marked area. The number of trees with fading crowns also was recorded. Thereafter, the trees were evaluated weekly for crown fading. When mortality did occur, the trees were felled and two bolts taken and evaluated for attack success and gallery length as described in Trial 1. All remaining trees were felled 66 days (Aug. 9) after initial pheromone deployment when no additional trees had died for 2 weeks. Treatment efficacy was determined by comparing tree survival, beetle attacks and egg gallery length on treated and untreated bolts. As before, data were transformed and analyzed by GLM and the Fisher's Protected LSD test using the Statview statistical program.

[1] = tested on: loblolly pine trees, Pinus taeda L.; details: in vivo
Protocol: Treatment Methods: Trial 1: Loblolly pine trees, Pinus taeda L., 15-20 cm (=6-9 inch) diameter at breast height (DBH), were selected in March of the study year in a 20-year-old pine stand in east Texas (Angelina County). Each treatment was injected into four cardinal points about 0.3 m above the ground on each of 15 trees in April (16th-23rd) using the Arborjet Tree IV™ microinfusion system (Arborjet, Inc. Woburn, Mass.).
At the time of tree felling, a section of lower bole (˜60-80 cm) containing the injection points was taken from each injected tree. The bark was later removed around the injection points to determine if any damage had resulted from the installation of plugs and/or injection of chemicals. If damage was found, the length and width of any ‘lesions’ (discolored areas on the surface of the xylem) were measured.

[2] = After 24 days from pheromone bait deployment

N#Cc1nn(-c2c(Cl)cc(C(F)(F)F)cc2Cl)c(N)c1[S+]([O-])C(F)(F)F (centres unmarked) [Fip, 5-amino-3-cyano-1-(2,6-dichloro-4-trifluoromethylphenyl)-4-trifluoromethylsulfinylpyrazole]
trees with early signs of fading crowns (number of 6 trees) (Ips engraver beetles): None
Pct of Trees w/Fading Crowns (Ips engraver beetles; [2]): 0.0 Pct
Pct of Trees w/Fading Crowns (Ips engraver beetles; After 32 days): 0.0 Pct
Pct of Trees w/Fading Crowns (Ips engraver beetles; After 39 days): 0.0 Pct
Pct of Trees w/Fading Crowns (Ips engraver beetles; After 46 days): 0.0 Pct
Pct of Trees w/Fading Crowns (Ips engraver beetles; After 52 days): 0.0 Pct
Pct of Trees w/Fading Crowns (Ips engraver beetles; After 59 days): 0.0 Pct
Pct of Trees w/Fading Crowns (Ips engraver beetles; After 66 days): 0.0 Pct
Length of Egg Galleries Total (Ips engraver beetles; bolt height 3 m): 6.0
Length of Egg Galleries With Brood (Ips engraver beetles; bolt height 3 m): 2.5 cm
Length of Egg Galleries With Brood % of Total (Ips engraver beetles; bolt height 3 m): 41.7%
Length of Egg Galleries Without Brood (Ips engraver beetles; bolt height 3 m): 3.5 cm
Length of Egg Galleries Without Brood % of Total (Ips engraver beetles; bolt height 3 m): 58.3%
Number of Egg Galleries Total (Ips engraver beetles; bolt height 3 m): 1.2
Number of Egg Galleries With Brood % of Total (Ips engraver beetles; bolt height 3 m): 14.3%
Number of Egg Galleries With Brood No. (Ips engraver beetles; bolt height 3 m): 0.2
Number of Egg Galleries Without Brood % of Total (Ips engraver beetles; bolt height 3 m): 85.7%
Number of Egg Galleries Without Brood No. (Ips engraver beetles; bolt height 3 m): 1.0
Nuptial Chambers With Egg Galleries % of Total (Ips engraver beetles; bolt height 3 m): 18.9%
Nuptial Chambers With Egg Galleries No. (Ips engraver beetles; bolt height 3 m): 1.2
Nuptial Chambers Without Egg Galleries % of Total (Ips engraver beetles; bolt height 3 m): 81.1%
Nuptial Chambers Without Egg Galleries No. (Ips engraver beetles; bolt height 3 m): 5.0
Total Nuptial Chambers (Ips engraver beetles; bolt height 3 m): 6.2
Length of Egg Galleries Total (Ips engraver beetles; bolt height 8 m): 22.7
Length of Egg Galleries With Brood (Ips engraver beetles; bolt height 8 m): 2.5 cm
Length of Egg Galleries With Brood % of Total (Ips engraver beetles; bolt height 8 m): 11.0%
Length of Egg Galleries Without Brood (Ips engraver beetles; bolt height 8 m): 20.2 cm
Length of Egg Galleries Without Brood % of Total (Ips engraver beetles; bolt height 8 m): 89.0%
Number of Egg Galleries Total (Ips engraver beetles; bolt height 8 m): 7.7
Number of Egg Galleries With Brood % of Total (Ips engraver beetles; bolt height 8 m): 6.5%
Number of Egg Galleries With Brood No. (Ips engraver beetles; bolt height 8 m): 0.5
Number of Egg Galleries Without Brood % of Total (Ips engraver beetles; bolt height 8 m): 93.5%
Number of Egg Galleries Without Brood No. (Ips engraver beetles; bolt height 8 m): 7.2
Nuptial Chambers With Egg Galleries % of Total (Ips engraver beetles; bolt height 8 m): 66.7%
Nuptial Chambers With Egg Galleries No. (Ips engraver beetles; bolt height 8 m): 3.0
Nuptial Chambers Without Egg Galleries % of Total (Ips engraver beetles; bolt height 8 m): 33.3%
Nuptial Chambers Without Egg Galleries No. (Ips engraver beetles; bolt height 8 m): 1.5
Total Nuptial Chambers (Ips engraver beetles; bolt height 8 m): 4.5
Mean # of Ips caught/trap (Ips engraver beetles): 5.2
Number of Attacks/0.3 m bole section at 3 m after 24 days: Ips (Ips engraver beetles): 1.3
tree survival (Ips engraver beetles; standing trees, end of trial (66 days)): survived
Borer Feeding Area (% of Total Area) (Cerambycid): 0.0 % of Total Area
Number of Attacks/0.3 m bole section at 3 m after 24 days: Cerambycid (Cerambycid): 1.3 a
Lesion Length ([1]; 1 month): 4.1 a cm
Lesion Width ([1]; 1 month): 1.5 a cm
Lesion Length ([1]; 3 months): 4.1 a cm
Lesion Width ([1]; 3 months): 1.4 cm

O=[N+]([O-])NC1=NCCN1Cc1ccc(Cl)nc1 [Imid]
trees with early signs of fading crowns (number of 6 trees) (Ips engraver beetles): 3 of 6
Pct of Trees w/Fading Crowns (Ips engraver beetles; [2]): 50.0 Pct
Pct of Trees w/Fading Crowns (Ips engraver beetles; After 32 days): 83.3 Pct
Pct of Trees w/Fading Crowns (Ips engraver beetles; After 39 days): 83.3 Pct
Pct of Trees w/Fading Crowns (Ips engraver beetles; After 46 days): 83.3 Pct
Pct of Trees w/Fading Crowns (Ips engraver beetles; After 52 days): 100.0 Pct
Pct of Trees w/Fading Crowns (Ips engraver beetles; After 59 days): 100.0 Pct
Pct of Trees w/Fading Crowns (Ips engraver beetles; After 66 days): 100.0 Pct
Length of Egg Galleries Total (Ips engraver beetles; bolt height 3 m): 301.5
Length of Egg Galleries With Brood (Ips engraver beetles; bolt height 3 m): 121.7 cm
Length of Egg Galleries With Brood % of Total (Ips engraver beetles; bolt height 3 m): 40.4%
Length of Egg Galleries Without Brood (Ips engraver beetles; bolt height 3 m): 179.8 cm
Length of Egg Galleries Without Brood % of Total (Ips engraver beetles; bolt height 3 m): 59.6%
Number of Egg Galleries Total (Ips engraver beetles; bolt height 3 m): 38.2
Number of Egg Galleries With Brood % of Total (Ips engraver beetles; bolt height 3 m): 28.8%
Number of Egg Galleries With Brood No. (Ips engraver beetles; bolt height 3 m): 11.0
Number of Egg Galleries Without Brood % of Total (Ips engraver beetles; bolt height 3 m): 71.2%
Number of Egg Galleries Without Brood No. (Ips engraver beetles; bolt height 3 m): 27.2
Nuptial Chambers With Egg Galleries % of Total (Ips engraver beetles; bolt height 3 m): 98.0%
Nuptial Chambers With Egg Galleries No. (Ips engraver beetles; bolt height 3 m): 8.0
Nuptial Chambers Without Egg Galleries % of Total (Ips engraver beetles; bolt height 3 m): 2.0%
Nuptial Chambers Without Egg Galleries No. (Ips engraver beetles; bolt height 3 m): 0.2
Total Nuptial Chambers (Ips engraver beetles; bolt height 3 m): 8.2
Length of Egg Galleries Total (Ips engraver beetles; bolt height 8 m): 217.5
Length of Egg Galleries With Brood (Ips engraver beetles; bolt height 8 m): 115.5 cm
Length of Egg Galleries With Brood % of Total (Ips engraver beetles; bolt height 8 m): 53.1%
Length of Egg Galleries Without Brood (Ips engraver beetles; bolt height 8 m): 102.0 cm
Length of Egg Galleries Without Brood % of Total (Ips engraver beetles; bolt height 8 m): 46.9%
Number of Egg Galleries Total (Ips engraver beetles; bolt height 8 m): 33.2
Number of Egg Galleries With Brood % of Total (Ips engraver beetles; bolt height 8 m): 42.7%
Number of Egg Galleries Without Brood % of Total (Ips engraver beetles; bolt height 8 m): 57.3%
Number of Egg Galleries Without Brood No. (Ips engraver beetles; bolt height 8 m): 19.0
Nuptial Chambers With Egg Galleries % of Total (Ips engraver beetles; bolt height 8 m): 78.7%
Nuptial Chambers With Egg Galleries No. (Ips engraver beetles; bolt height 8 m): 9.8
Nuptial Chambers Without Egg Galleries % of Total (Ips engraver beetles; bolt height 8 m): 21.3%
Nuptial Chambers Without Egg Galleries No. (Ips engraver beetles; bolt height 8 m): 2.7
Total Nuptial Chambers (Ips engraver beetles; bolt height 8 m): 12.5
Mean # of Ips caught/trap (Ips engraver beetles): 8.5
Number of Attacks/0.3 m bole section at 3 m after 24 days: Ips (Ips engraver beetles): 12.7
trees died due to bark beetle attack (Ips engraver beetles; standing trees, after 66 days): 100%
Number of Attacks/0.3 m bole section at 3 m after 24 days: Cerambycid (Cerambycid): 4.7 a
Lesion Length ([1]; 1 month): 7.3 b cm
Lesion Width ([1]; 1 month): 1.7 a cm
Lesion Length ([1]; 3 months): 6.1 a cm
Lesion Width ([1]; 3 months): 1.3 cm
